From patent publication US20120052056A1, “COMPOSITION FOR IMPROVING BLOOD CIRCULATION CONTAINING FERMENTED TEA, AND PHARMACEUTICAL AND HEALTH-FOOD COMPOSITIONS COMPRISING THE SAME” (priority 2009, published 2012)

Tested on: rats fed high-cholesterol diet inducing hyperlipidemia
Experiment: Reduction in the serum and liver lipid levels in animal model
Type: in vivo
Settings: 200 mg/kg oral once a day for 4 weeks with hyperlipidemia-inducing diet
Protocol: Eight 8-week-old female rats weighing 250-300 g were housed in each polycarbonate cage under a 12 hr light/12 hr dark cycle at a constant temperature of 22±2° C. and a relative humidity of 55±15%. The animals were fed with a normal diet and a high-cholesterol diet and given drinking water ad libitum. The test animals were divided into four groups: a normal group, a control group, a positive control group, and a test group. The normal group was provided only with general feed, the control group was fed with a normal diet containing 1% cholesterol and 0.5% cholic acid to cause hyperlipidemia, and the positive control group was administered with fenofibric acid (200 mg/kg) that is used as an agent for treating hyperlipidemia, in which the fenofibric acid was suspended in 1% methyl cellulose (MC) and administered orally. The test group was administered orally with the post-fermented tea extract and the green tea extract every day together with a hyperlipidemia-inducing diet, in which the post-fermented tea extract and the green tea extract (200 mg/kg) were provided by oral administration once a day for 4 weeks. After the rats of each group were fasted for 12 hours, a blood sample was taken from the orbital vein and centrifuged at 10000 rcf for 10 minutes. The resulting serum was used to evaluate blood total cholesterol, LDL cholesterol and HDL-cholesterol levels. The rat's liver was collected and used to evaluate the liver cholesterol and triglyceride levels. The above analysis was carried out using an automatic blood analyzer and a Roche diagnostic kit, and the results of the analysis are shown in Table 4 (serum lipids) below and Table 5 (liver lipids).

CC(C)(Oc1ccc(C(=O)c2ccc(Cl)cc2)cc1)C(=O)O [Positive control group, fenofibric acid]
Liver lipids: Total cholesterol (liver): 15.43 ± 0.52 µg/mg | Liver lipids: Triglyceride (liver): 185.39 ± 23.84 µg/mg | Serum lipids: HDL-cholesterol (serum): 87.89 ± 6.84 mg/dL | Serum lipids: LDL-cholesterol (serum): 75.34 ± 2.80 mg/dL | Serum lipids: Total cholesterol (serum): 112.42 ± 13.33 mg/dL
